In paper PMC4607367, “Gedunin and Azadiradione: Human Pancreatic Alpha-Amylase Inhibiting Limonoids from Neem (Azadirachta indica) as Anti-Diabetic Agents” (PLoS ONE, 2015):
“Also recorded” adds a separate entry of the source.

Tests used:
[1] = target: T1, secreted pancreatic α-amylase of AR42J cells (Rattus norvegicus, UniProt P00689); test: Bioactivity: inhibition of secreted pancreatic α-amylase in dexamethasone-induced AR42J cells, incl. starch load test (DNSA); format: cell-based; conditions: for Amylase inhibition at the cytotoxic IC50 concentration: 24 h, at 11.1, 13.4 and 4.1 μM respectively
T1 construct: host or cells: AR42J rat pancreatic acinar cells, induced with 10 nM dexamethasone
T1 sequence (P00689 16-508): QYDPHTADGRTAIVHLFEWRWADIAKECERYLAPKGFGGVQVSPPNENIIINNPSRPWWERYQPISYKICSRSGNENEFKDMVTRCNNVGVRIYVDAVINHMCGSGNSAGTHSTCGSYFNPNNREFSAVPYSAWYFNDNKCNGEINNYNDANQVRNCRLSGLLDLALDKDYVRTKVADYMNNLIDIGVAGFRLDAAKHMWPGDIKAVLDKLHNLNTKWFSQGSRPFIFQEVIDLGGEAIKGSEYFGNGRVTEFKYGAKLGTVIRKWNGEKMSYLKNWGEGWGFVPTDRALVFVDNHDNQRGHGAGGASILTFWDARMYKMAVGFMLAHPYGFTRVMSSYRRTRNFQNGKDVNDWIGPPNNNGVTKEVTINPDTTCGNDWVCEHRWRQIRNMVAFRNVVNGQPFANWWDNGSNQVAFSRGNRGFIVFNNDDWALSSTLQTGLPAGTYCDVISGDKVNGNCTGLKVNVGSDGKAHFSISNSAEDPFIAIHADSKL
Source text: Appropriate medium and DMSO controls were simultaneously set up.

[2] = target: T2, Porcine pancreatic α-amylase (PPA) (Sus scrofa, UniProt P00690); test: Porcine pancreatic α-amylase inhibition assay, chromogenic DNSA method (primary screening); format: biochemical; conditions: for IC50: starch 1% w/v, pH 6.9, 37°C; for PPA inhibition (result in words): inhibitors 13.8–214.3 μM
T2 construct: purchased SRL, Mumbai, India
T2 sequence (P00690 16-511): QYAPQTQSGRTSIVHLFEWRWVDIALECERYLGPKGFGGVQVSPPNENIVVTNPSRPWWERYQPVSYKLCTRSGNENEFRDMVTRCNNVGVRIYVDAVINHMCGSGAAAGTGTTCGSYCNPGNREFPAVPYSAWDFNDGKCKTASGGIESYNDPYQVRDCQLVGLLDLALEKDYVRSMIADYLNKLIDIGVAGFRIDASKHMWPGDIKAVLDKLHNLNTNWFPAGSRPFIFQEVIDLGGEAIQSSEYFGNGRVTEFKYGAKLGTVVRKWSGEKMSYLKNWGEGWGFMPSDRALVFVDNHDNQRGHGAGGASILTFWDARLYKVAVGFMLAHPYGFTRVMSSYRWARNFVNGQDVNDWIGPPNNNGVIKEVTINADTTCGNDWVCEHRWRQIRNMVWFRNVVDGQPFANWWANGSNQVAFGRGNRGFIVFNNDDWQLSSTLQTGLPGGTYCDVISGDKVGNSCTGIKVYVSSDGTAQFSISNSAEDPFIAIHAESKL
Experimental: The inhibition assay was performed using the chromogenic DNSA method. PPA was used for preliminary screening of α-amylase inhibitors. […] Moreover a high degree gene sequence similarity (~ 90%) exists between human salivary α-amylase (HSA) and PPA as reported by (Buisson et al 1987). Brayer et al (1995) have reported 97% primary sequence similarity between human salivary and human pancreatic α-amylases and a 70% structural similarity between PPA and HPA [11]. Thus, a high degree of similarity between PPA and HPA allows us to use it as the enzyme for screening inhibitors.
In brief, the total assay mixture consisting of 0.02 M sodium phosphate buffer, pH6.9, (containing 6 mM NaCl), 0.2–0.25 U of PPA and inhibitors (13.8–214.3 μM) in DMSO was incubated at 37°C for 10 min. After pre-incubation, the substrate starch (1%, w/v) solution was added to the reaction mixture and further incubated for 15 min. The control PPA (0.21 U) without any inhibitor represented 100% enzyme activity. One unit of enzyme activity is defined as the amount of enzyme required to release one micromole of maltose from starch/maltopentaose per min under the assay conditions. The other quantifiers calculated were: % Relative enzyme activity = (enzyme activity of test/enzyme activity of control)*100. % inhibition = (100 − % relative enzyme activity).
The IC50 values were determined from plots of percent inhibition versus inhibitor concentration and calculated by logarithmic regression analysis. To eliminate the absorbance produced by the compound, appropriate controls were included. The known PPA/HPA inhibitor acarbose was used as a positive control at a concentration range of 10–50 μM.

[3] = system: AR42J rat pancreatic acinar cells; test: Cytotoxicity in AR42J cell line (MTT); conditions: AR42J
Experimental: (§1) Cells were seeded at 2×10^4 cells well^-1 onto 96 wells culture dish. […] Appropriate medium and DMSO controls were simultaneously set up. […] At the end of 24 h incubation period the culture media was removed from the samples and fresh culture media (100 μl) containing 20 μl of MTT tetrazolium bromide (5 mg ml^-1) added and incubated for 3 h at 37°C. Metabolically active cells reduce MTT to insoluble purple formazan dye crystals, which were dissolved by addition of 300 μl DMSO solution at the end of the incubation period and quantitated at 550 nm [34].

[4] = Cytotoxicity in AR42J cell line (MTT); conditions: rat, AR42J pancreatic acinar cells
Experimental: as §1

[5] = target: T3, Human pancreatic α-amylase (HPA) (Homo sapiens, UniProt P04746); test: HPA inhibition kinetics (Michaelis-Menten, Lineweaver-Burk, secondary plots); format: biochemical
T3 construct: purchased Sigma Aldrich, USA
T3 sequence (P04746 16-511): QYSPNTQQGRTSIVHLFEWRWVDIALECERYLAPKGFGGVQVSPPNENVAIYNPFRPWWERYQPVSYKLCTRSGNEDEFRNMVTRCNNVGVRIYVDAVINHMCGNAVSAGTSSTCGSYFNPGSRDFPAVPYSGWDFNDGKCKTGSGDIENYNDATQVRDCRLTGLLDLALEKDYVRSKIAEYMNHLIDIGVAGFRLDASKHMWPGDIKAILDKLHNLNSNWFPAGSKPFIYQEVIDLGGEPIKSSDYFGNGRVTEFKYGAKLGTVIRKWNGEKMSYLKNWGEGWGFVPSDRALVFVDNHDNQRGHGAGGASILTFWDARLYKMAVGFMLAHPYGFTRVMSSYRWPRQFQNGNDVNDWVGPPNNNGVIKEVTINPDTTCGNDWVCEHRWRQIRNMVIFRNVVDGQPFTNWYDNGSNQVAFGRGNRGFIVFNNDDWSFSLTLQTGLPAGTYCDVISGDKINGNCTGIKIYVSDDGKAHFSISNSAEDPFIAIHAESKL
Experimental: The mode of inhibition of HPA by the lead inhibitors azadiradione and gedunin were determined using Michaelis-Menton and Lineweaver-Burk equations. Starch (1–5mg ml^-1) and maltopentaose (0.05–0.4mM) were incubated with inhibitors-HPA for 10 and 2.5 min, respectively and the residual enzyme activity determined by DNSA method for starch and Nelson-Somogyi’s method for maltopentaose.The inhibitor constants(K i) were determined on the basis of mode of inhibition.

[6] = target: T3, Human pancreatic α-amylase (HPA); test: Human pancreatic α-amylase inhibition and stoichiometry (DNSA); format: biochemical
Source text: The control HPA (0.25 U) without inhibitors represented 100% enzyme activity.

[7] = target: T3, Human pancreatic α-amylase (HPA); test: Ligand binding to HPA by fluorescence quenching titration, thermodynamic parameters
Experimental: Ligand binding studies using fluorescence measurements of HPA were carried as described in our earlier report. […] Non-linear and linear regression analyses were used to analyze the data.
The thermodynamic parameters, association constants (K a), dissociation constant (K d) and Gibbs free energy (ΔG°) of binding for azadiradione and gedunin were determined at various temperatures 25°C to 60°C by fluorescence quenching studies.

[8] = system: PPA; set-up: method as in PMID 22975503; conditions: ref [25],[26], cited from earlier work; for IC50: value in brackets
[9] = target: HPA; set-up: method as in PMID 15736945; conditions: ref [60], cited from earlier work
[10] = linear van't Hoff plot, 298–333 K

In the case of `CC(=O)O[C@@H]1C[C@H]2C(C)(C)C(=O)C=C[C@]2(C)[C@H]2CC[C@@]3(C)[C@H](c4ccoc4)C(=O)[C@H]4O[C@]43[C@@]21C` [epoxyazadiradione], the “Amylase inhibition at the cytotoxic IC50 concentration” value ([1]; AR42J) is reported as 53.2%, the inhibition at 1.7 µM ([1]; AR-42J, read-out: Pancreatic (secreted) α-amylase inhibition) is reported as 31.8% and the IC50 [2] is reported as 100 µM. The Cell death ([3]; 1.7 μM) was 2.7% and the IC50 at 24 h [4] was 4.1 µM.

With `CC(=O)O[C@@H]1C[C@H]2C(C)(C)C(=O)C=C[C@]2(C)[C@H]2CC[C@]3(C)C(=CC[C@H]3c3ccoc3)[C@@]21C` [azadirone] the “PPA inhibition (result in words)” value [2] was “No inhibition; also recorded: no activity was observed”.

For `C/C=C(\C)C(=O)O[C@H]1C[C@@H](OC(C)=O)[C@@]2(C(=O)OC)CO[C@H]3[C@@H](O)[C@@](C)([C@]45O[C@@]4(C)[C@@H]4C[C@H]5O[C@@H]5OC=C[C@@]54O)[C@H]4[C@]1(CO[C@]4(O)C(=O)OC)[C@@H]32` [azadirachtin A], the “PPA inhibition (result in words)” value [2] was “No inhibition; also recorded: no bioactivity”.

For `CC(=O)O[C@@H]1C[C@H]2C(C)(C)C(=O)C=C[C@]2(C)[C@H]2CC[C@@]3(C)[C@H](c4ccoc4)OC(=O)[C@H]4O[C@]43[C@@]21C` [gedunin], the “Secreted amylase inhibition in starch load test” value ([1]; AR42J, 0.5% (w/v) starch, up to two hours) was 31.7%, the “Amylase inhibition at the cytotoxic IC50 concentration” value ([1]; AR42J) was 69.2% and the inhibition at 3.3 µM ([1]; AR-42J, AR42J, 3.3 μM) was 53.4%. The Ki ([5]; maltopentaose as substrate, secondary plots) was 18.6 µM, the “Apparent K i ′” value ([5]; starch as substrate, secondary plots) was 37.4 µM and the “Mode of HPA inhibition” value ([5]; substrates starch and maltopentaose, Lineweaver-Burk) was “mixed”. The IC50 [2] was 72.2 µM, the “Stoichiometry of HPA inactivation” value ([6]; percentage inhibition versus molar ratio of HPA and inhibitor, HPA 14.85 μM) was 0.68 and the IC50 ([6]; starch substrate, sigmoidal fit) was 68.4 µM. The Cell death ([3]; 3.3 μM) was 8.6%, the “Cell morphology versus controls” value ([3]; azadiradione 3.5 μM, gedunin 3.3 μM (Fig 3)) was “no morphological change” and the IC50 at 24 h [4] was 13.4 µM. The “-ΔG°” value ([7]; 298 K) was 21.16 k J mol^-1, the K a ([7]; 298 K) was 5100 M⁻¹ and the Kd ([7]; 298 K) was 200 ± 9 µM. For the same molecule, the “-ΔG°” value ([7]; 303 K) was 20.57 k J mol^-1, the K a ([7]; 303 K) was 3500 M⁻¹ and the Kd ([7]; 303 K) was 300 ± 3 µM. For the same molecule, the “-ΔG°” value ([7]; 308 K) was 16.4 k J mol^-1, the K a ([7]; 308 K) was 600 M⁻¹ and the Kd ([7]; 308 K) was 1600 ± 1 µM. The “-ΔG°” value ([7]; 313 K) was 12.4 k J mol^-1, the K a ([7]; 313 K) was 120 M⁻¹ and the Kd ([7]; 313 K) was 8300 ± 50 µM. The “-ΔG°” value ([7]; 323K) was 11.8 k J mol^-1, the K a ([7]; 323K) was 80 M⁻¹ and the Kd ([7]; 323K) was 12200 ± 600 µM. The “-ΔG°” value ([7]; 333K) was 7.4 k J mol^-1, the K a ([7]; 333K) was 10 M⁻¹ and the Kd ([7]; 333K) was 67200 ± 800 µM. For the same molecule, the “Maximal quenching of intrinsic HPA fluorescence” value ([7]; 350 nm, azadiradione 3.9–118 μM, gedunin 2.0–51.86 μM) was 19%, the “Maximum ΔG° of binding” value ([7]; calculated from binding constants, maximal affinity at 298 K) was -5.057 kcal/mol and the “Enthalpy (ΔHvH)” value [7, 10] was -33.44 kcal/mol. The “Entropy (-ΔS)” value [7, 10] was 397.84 J mol^-1K^-1.

In the case of `C/C=C(/C)C(=O)O[C@H]1C[C@@H](OC(C)=O)[C@@]2(C)CO[C@H]3[C@H]4O[C@@H]5C[C@@H](c6ccoc6)C(C)=C5[C@@]4(C)[C@H](CC(=O)OC)[C@]1(C)[C@@H]32` [salannin], the “PPA inhibition (result in words)” value [2] is reported as “No inhibition; also recorded: no bioactivity”.

In the case of `CC=C(C)C(=O)OC1CC(O)C23COC(C(=O)OC)C2C(C)(C24OC2(C)C2CC4OC4OC=CC42O)C(O)C2OCC1(C(=O)OC)C23` (centres unmarked) [azadirachtin B], the “PPA inhibition (result in words)” value [2] is reported as “No inhibition; also recorded: no bioactivity”.

For `CC(=O)O[C@@H]1C[C@H](OC(=O)C=C(C)C)[C@@]2(C)[C@H]3[C@@H](OC[C@]13C)[C@@H](O)[C@@]1(C)C3=CC[C@@H]([C@@H]4COC(=O)C4)[C@]3(C)CC[C@@H]12` [azadirachtolide], the “IC50 with PPA” value [8] is given as 55.8 µg/mL and the IC50 [8] is given as 94.1 µM.

For `CC(C)=CC(=O)O[C@H]1C[C@@H](O)[C@@]2(C)CO[C@H]3[C@@H](O)[C@@]4(C)C5=CC[C@@H](c6ccoc6)[C@]5(C)CC[C@@H]4[C@]1(C)[C@@H]32` [meliacinolin], the “IC50 with PPA” value [8] is listed as 46.74 µg/mL and the IC50 [8] is listed as 91.6 µM.

For `COC(=O)C[C@H]1[C@]2(C)C3=C(C)[C@H](c4ccoc4)C[C@H]3O[C@@H]2[C@H](OC(C)=O)[C@@H]2[C@]1(C)C(=O)C=C[C@@]2(C)C(=O)OC` [nimbin], the “PPA inhibition (result in words)” value [2] was “No inhibition; also recorded: no bioactivity”.

In the case of `C[C@H]1O[C@H](O[C@H]2[C@H](O)[C@@H](O)[C@@H](O[C@H]3[C@H](O)[C@@H](O)C(O)O[C@@H]3CO)O[C@@H]2CO)[C@H](O)[C@@H](O)[C@@H]1N[C@H]1C=C(CO)[C@@H](O)[C@H](O)[C@H]1O` (some centres unmarked) [Acarbose, acarbose], the Ki ([9]; 2-chloro-4-nitrophenyl-α-maltotrioside as substrate) is listed as 22 µM and the “Mode of HPA inhibition” value [9] is listed as “noncompetitive”.
